Reference: ChEMBL document CHEMBL5724914, “Linking interpersonal differences in gut microbiota composition and drug biotransformation activity” (2024)

Conditions: human gut metagenome, 24 h, 2 µM
Also: call rule not given here.

| Structure (SMILES) | Bacterial Biotransformation |
| --- | --- |
| CN(C)CCOC(C)(c1ccccc1)c1ccccn1.O=C(O)CCC(=O)O (stereo not given) [DOXYLAMINE SUCCINATE] | Compound NOT metabolized |
| Br.CN1CCC[C@@H]1Cc1c[nH]c2ccc(CCS(=O)(=O)c3ccccc3)cc12 [ELETRIPTAN HYDROBROMIDE] | Compound NOT metabolized |

The remaining lines, values ahead:

| Bacterial Biotransformation | Structure (SMILES) |
| --- | --- |
| Compound NOT metabolized | COc1ccc([C@@H]2Sc3ccccc3N(CCN(C)C)C(=O)[C@@H]2OC(C)=O)cc1 [DILTIAZEM] |
| Compound NOT metabolized | OCCN(CCO)c1nc(N2CCCCC2)c2nc(N(CCO)CCO)nc(N3CCCCC3)c2n1 [DIPYRIDAMOLE] |
| Compound NOT metabolized | CCOC(=O)[C@H](CCc1ccccc1)N[C@@H](C)C(=O)N1CCC[C@H]1C(=O)O.O=C(O)/C=C\C(=O)O [ENALAPRIL MALEATE] |

Conditions: human gut metagenome, 24 h, 2 µM
Remark: another data set of the same source

| Structure (SMILES) | Bacterial Biotransformation |
| --- | --- |
| CN(C)CCOC(C)(c1ccccc1)c1ccccn1.O=C(O)CCC(=O)O (stereo not given) [DOXYLAMINE SUCCINATE] | Compound NOT metabolized |
| Br.CN1CCC[C@@H]1Cc1c[nH]c2ccc(CCS(=O)(=O)c3ccccc3)cc12 [ELETRIPTAN HYDROBROMIDE] | Compound metabolized |

Second part, the compound after the results:

| Bacterial Biotransformation | Structure (SMILES) |
| --- | --- |
| Compound metabolized | COc1ccc([C@@H]2Sc3ccccc3N(CCN(C)C)C(=O)[C@@H]2OC(C)=O)cc1 [DILTIAZEM] |
| Compound metabolized | OCCN(CCO)c1nc(N2CCCCC2)c2nc(N(CCO)CCO)nc(N3CCCCC3)c2n1 [DIPYRIDAMOLE] |
| Compound NOT metabolized | CCOC(=O)[C@H](CCc1ccccc1)N[C@@H](C)C(=O)N1CCC[C@H]1C(=O)O.O=C(O)/C=C\C(=O)O [ENALAPRIL MALEATE] |

Conditions: human gut metagenome, 24 h, 2 µM
Remark: another data set of the same source

| Structure (SMILES) | Bacterial Biotransformation |
| --- | --- |
| CN(C)CCOC(C)(c1ccccc1)c1ccccn1.O=C(O)CCC(=O)O (stereo not given) [DOXYLAMINE SUCCINATE] | Compound NOT metabolized |
| Br.CN1CCC[C@@H]1Cc1c[nH]c2ccc(CCS(=O)(=O)c3ccccc3)cc12 [ELETRIPTAN HYDROBROMIDE] | Compound NOT metabolized |

Results, then the compound that gave them:

| Bacterial Biotransformation | Structure (SMILES) |
| --- | --- |
| Compound NOT metabolized | COc1ccc([C@@H]2Sc3ccccc3N(CCN(C)C)C(=O)[C@@H]2OC(C)=O)cc1 [DILTIAZEM] |
| Compound NOT metabolized | OCCN(CCO)c1nc(N2CCCCC2)c2nc(N(CCO)CCO)nc(N3CCCCC3)c2n1 [DIPYRIDAMOLE] |
| Compound NOT metabolized | CCOC(=O)[C@H](CCc1ccccc1)N[C@@H](C)C(=O)N1CCC[C@H]1C(=O)O.O=C(O)/C=C\C(=O)O [ENALAPRIL MALEATE] |

Assay: (§1) The drug is tested on WLS-006 corresponding to human gut metagenome with ENA study accession number: PRJEB37062 and ENA sample accession number: ERS12561741 for biotransformation under anaerobic condition. The drug concentrations were measured over 9 timepoints collected between 0 and 24 hours of incubation by liquid-chromatography-coupled mass spectrometry (LC–MS)
Conditions: 2 µM

| Structure (SMILES) | Bacterial Biotransformation |
| --- | --- |
| CN(C)CCOC(C)(c1ccccc1)c1ccccn1.O=C(O)CCC(=O)O (stereo not given) [DOXYLAMINE SUCCINATE] | Compound NOT metabolized |
| Br.CN1CCC[C@@H]1Cc1c[nH]c2ccc(CCS(=O)(=O)c3ccccc3)cc12 [ELETRIPTAN HYDROBROMIDE] | Compound NOT metabolized |

Further lines, results first:

| Bacterial Biotransformation | Structure (SMILES) |
| --- | --- |
| Compound metabolized | COc1ccc([C@@H]2Sc3ccccc3N(CCN(C)C)C(=O)[C@@H]2OC(C)=O)cc1 [DILTIAZEM] |
| Compound NOT metabolized | OCCN(CCO)c1nc(N2CCCCC2)c2nc(N(CCO)CCO)nc(N3CCCCC3)c2n1 [DIPYRIDAMOLE] |
| Compound NOT metabolized | CCOC(=O)[C@H](CCc1ccccc1)N[C@@H](C)C(=O)N1CCC[C@H]1C(=O)O.O=C(O)/C=C\C(=O)O [ENALAPRIL MALEATE] |

Assay: as §1, with “WLS-370” for “WLS-006”, “ERS12561793” for “ERS12561741”
Conditions: 2 µM

| Structure (SMILES) | Bacterial Biotransformation |
| --- | --- |
| CN(C)CCOC(C)(c1ccccc1)c1ccccn1.O=C(O)CCC(=O)O (stereo not given) [DOXYLAMINE SUCCINATE] | Compound NOT metabolized |
| Br.CN1CCC[C@@H]1Cc1c[nH]c2ccc(CCS(=O)(=O)c3ccccc3)cc12 [ELETRIPTAN HYDROBROMIDE] | Compound NOT metabolized |

Second part, the compound after the results:

| Bacterial Biotransformation | Structure (SMILES) |
| --- | --- |
| Compound metabolized | COc1ccc([C@@H]2Sc3ccccc3N(CCN(C)C)C(=O)[C@@H]2OC(C)=O)cc1 [DILTIAZEM] |
| Compound metabolized | OCCN(CCO)c1nc(N2CCCCC2)c2nc(N(CCO)CCO)nc(N3CCCCC3)c2n1 [DIPYRIDAMOLE] |
| Compound NOT metabolized | CCOC(=O)[C@H](CCc1ccccc1)N[C@@H](C)C(=O)N1CCC[C@H]1C(=O)O.O=C(O)/C=C\C(=O)O [ENALAPRIL MALEATE] |

Conditions: human gut metagenome, 24 h, 2 µM
Remark: another data set of the same source

| Structure (SMILES) | Bacterial Biotransformation |
| --- | --- |
| CN(C)CCOC(C)(c1ccccc1)c1ccccn1.O=C(O)CCC(=O)O (stereo not given) [DOXYLAMINE SUCCINATE] | Compound NOT metabolized |
| Br.CN1CCC[C@@H]1Cc1c[nH]c2ccc(CCS(=O)(=O)c3ccccc3)cc12 [ELETRIPTAN HYDROBROMIDE] | Compound metabolized |

Next, values leading:

| Bacterial Biotransformation | Structure (SMILES) |
| --- | --- |
| Compound NOT metabolized | COc1ccc([C@@H]2Sc3ccccc3N(CCN(C)C)C(=O)[C@@H]2OC(C)=O)cc1 [DILTIAZEM] |
| Compound NOT metabolized | OCCN(CCO)c1nc(N2CCCCC2)c2nc(N(CCO)CCO)nc(N3CCCCC3)c2n1 [DIPYRIDAMOLE] |
| Compound NOT metabolized | CCOC(=O)[C@H](CCc1ccccc1)N[C@@H](C)C(=O)N1CCC[C@H]1C(=O)O.O=C(O)/C=C\C(=O)O [ENALAPRIL MALEATE] |

Assay: as §1, with “Z-028” for “WLS-006”, “mouse” for “human”, “ERS12561827” for “ERS12561741”
Conditions: 2 µM

| Structure (SMILES) | Bacterial Biotransformation |
| --- | --- |
| CN(C)CCOC(C)(c1ccccc1)c1ccccn1.O=C(O)CCC(=O)O (stereo not given) [DOXYLAMINE SUCCINATE] | Compound NOT metabolized |
| Br.CN1CCC[C@@H]1Cc1c[nH]c2ccc(CCS(=O)(=O)c3ccccc3)cc12 [ELETRIPTAN HYDROBROMIDE] | Compound NOT metabolized |

The remaining lines, values ahead:

| Bacterial Biotransformation | Structure (SMILES) |
| --- | --- |
| Compound metabolized | COc1ccc([C@@H]2Sc3ccccc3N(CCN(C)C)C(=O)[C@@H]2OC(C)=O)cc1 [DILTIAZEM] |
| Compound NOT metabolized | OCCN(CCO)c1nc(N2CCCCC2)c2nc(N(CCO)CCO)nc(N3CCCCC3)c2n1 [DIPYRIDAMOLE] |
| Compound NOT metabolized | CCOC(=O)[C@H](CCc1ccccc1)N[C@@H](C)C(=O)N1CCC[C@H]1C(=O)O.O=C(O)/C=C\C(=O)O [ENALAPRIL MALEATE] |

Conditions: human gut metagenome, 24 h, 2 µM
Remark: another data set of the same source

| Structure (SMILES) | Bacterial Biotransformation |
| --- | --- |
| CN(C)CCOC(C)(c1ccccc1)c1ccccn1.O=C(O)CCC(=O)O (stereo not given) [DOXYLAMINE SUCCINATE] | Compound NOT metabolized |
| Br.CN1CCC[C@@H]1Cc1c[nH]c2ccc(CCS(=O)(=O)c3ccccc3)cc12 [ELETRIPTAN HYDROBROMIDE] | Compound NOT metabolized |

The remaining lines, values ahead:

| Bacterial Biotransformation | Structure (SMILES) |
| --- | --- |
| Compound NOT metabolized | COc1ccc([C@@H]2Sc3ccccc3N(CCN(C)C)C(=O)[C@@H]2OC(C)=O)cc1 [DILTIAZEM] |
| Compound NOT metabolized | OCCN(CCO)c1nc(N2CCCCC2)c2nc(N(CCO)CCO)nc(N3CCCCC3)c2n1 [DIPYRIDAMOLE] |
| Compound NOT metabolized | CCOC(=O)[C@H](CCc1ccccc1)N[C@@H](C)C(=O)N1CCC[C@H]1C(=O)O.O=C(O)/C=C\C(=O)O [ENALAPRIL MALEATE] |

Conditions: human gut metagenome, 24 h, 2 µM
Remark: another data set of the same source

| Structure (SMILES) | Bacterial Biotransformation |
| --- | --- |
| CN(C)CCOC(C)(c1ccccc1)c1ccccn1.O=C(O)CCC(=O)O (stereo not given) [DOXYLAMINE SUCCINATE] | Compound NOT metabolized |
| Br.CN1CCC[C@@H]1Cc1c[nH]c2ccc(CCS(=O)(=O)c3ccccc3)cc12 [ELETRIPTAN HYDROBROMIDE] | Compound NOT metabolized |

Second part, the compound after the results:

| Bacterial Biotransformation | Structure (SMILES) |
| --- | --- |
| Compound NOT metabolized | COc1ccc([C@@H]2Sc3ccccc3N(CCN(C)C)C(=O)[C@@H]2OC(C)=O)cc1 [DILTIAZEM] |
| Compound NOT metabolized | OCCN(CCO)c1nc(N2CCCCC2)c2nc(N(CCO)CCO)nc(N3CCCCC3)c2n1 [DIPYRIDAMOLE] |
| Compound NOT metabolized | CCOC(=O)[C@H](CCc1ccccc1)N[C@@H](C)C(=O)N1CCC[C@H]1C(=O)O.O=C(O)/C=C\C(=O)O [ENALAPRIL MALEATE] |
